Data taken from patent US20170050957A1, “4-AMINO-6-(HETEROCYCLIC)PICOLINATES AND 6-AMINO-2-(HETEROCYCLIC)PYRIMIDINE-4-CARBOXYLATES AND THEIR USE AS HERBICIDES” (Dow AgroSciences LLC, priority 2013, published 2017).
Where two headings read alike, the source gives them in different places.

Experiments:
[1] = tested on: Key Broadleaf Weed and Crop Species; assay: Post-emergent Test II herbicidal activity (Table 15); assay type: in vivo; conditions: post-emergence, 336 h, 14 d; for pest or weed control at 35 g/ha: 35 g ai/ha; for pest or weed control at 70 g/ha: 70 g ai/ha; for pest or weed control at 140 g/ha: 140 g ai/ha
Procedure, shortened: (§1)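 Visual injury rating (0 = none, 100 = complete kill) taken 14 d after treatment, relative to untreated plants. Compounds in acetone/DMSO with crop oil concentrate and Triton X-155 were track-sprayed at 187 L/ha onto seedlings at the first-second true leaf stage.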

[2] = tested on: Key Grass and Sedge Weeds as well as Grass Crops; assay: Post-emergent Test II herbicidal activity (Table 16); assay type: in vivo; conditions: post-emergence, 336 h; for pest or weed control at 35 g/ha: 35 g ai/ha; for pest or weed control at 70 g/ha: 70 g ai/ha; for pest or weed control at 140 g/ha: 140 g ai/ha
Procedure, shortened: as §1

[3] = Abutilon theophrasti, velvetleaf (Abutilon theophrasti), read-out: Visual Growth Reduction (%) 14 Days After Application, ABUTH
[4] = Amaranthus retroflexus, redroot pigweed (Amaranthus retroflexus), read-out: Visual Growth Reduction (%) 14 Days After Application, AMARE
[5] = Brassica napus, oilseed rape, canola (Brassica napus), read-out: Visual Growth Reduction (%) 14 Days After Application, BRSNN
[6] = Chenopodium album, lambsquarters (Chenopodium album), read-out: Visual Growth Reduction (%) 14 Days After Application, CHEAL
[7] = Euphorbia heterophylla, wild poinsettia (Euphorbia heterophylla), read-out: Visual Growth Reduction (%) 14 Days After Application, EPHHL
[8] = Helianthus annuus, sunflower (Helianthus annuus), read-out: Visual Growth Reduction (%) 14 Days After Application, HELAN
[9] = Cyperus esculentus, yellow nutsedge (Cyperus esculentus), 14 days after application, read-out: Visual Growth Reduction (%) 14 Days After Application CYPES
[10] = Echinochloa crus-galli, barnyardgrass (Echinochloa crus-galli), 14 days after application, read-out: Visual Growth Reduction (%) 14 Days After Application ECHCG
[11] = Oryza sativa, rice (Oryza sativa), 14 days after application, read-out: Visual Growth Reduction (%) 14 Days After Application ORYSA
[12] = Setaria faberi, giant foxtail (Setaria faberi), 14 days after application, read-out: Visual Growth Reduction (%) 14 Days After Application SETFA
[13] = Triticum aestivum, wheat, spring (Triticum aestivum), 14 days after application, read-out: Visual Growth Reduction (%) 14 Days After Application TRZAS
[14] = Zea mays, maize, corn (Zea mays), 14 days after application, read-out: Visual Growth Reduction (%) 14 Days After Application ZEAMX
[15] = Cyperus esculentus, yellow nutsedge (Cyperus esculentus), 14 d, read-out: Visual Growth Reduction (%) 14 Days After Application, CYPES
[16] = Echinochloa crus-galli, barnyardgrass (Echinochloa crus-galli), 14 d, read-out: Visual Growth Reduction (%) 14 Days After Application, ECHCG
[17] = Oryza sativa, rice (Oryza sativa), 14 d, read-out: Visual Growth Reduction (%) 14 Days After Application, ORYSA
[18] = Setaria faberi, giant foxtail (Setaria faberi), 14 d, read-out: Visual Growth Reduction (%) 14 Days After Application, SETFA
[19] = Triticum aestivum, wheat, spring (Triticum aestivum), 14 d, read-out: Visual Growth Reduction (%) 14 Days After Application, TRZAS
[20] = Zea mays, maize, corn (Zea mays), 14 d, read-out: Visual Growth Reduction (%) 14 Days After Application, ZEAMX

COC(=O)c1nc(-c2cccc3c2cnn3C)c(F)c(N)c1Cl [Compound 4.10]
0 to 29%: pest or weed control at 35 g/ha [1, 3] | pest or weed control at 70 g/ha [1, 3] | pest or weed control at 140 g/ha [1, 3] | pest or weed control at 35 g/ha [1, 4] | pest or weed control at 35 g/ha [1, 5] | pest or weed control at 70 g/ha [1, 5] | pest or weed control at 140 g/ha [1, 5] | pest or weed control at 35 g/ha [1, 6] | pest or weed control at 70 g/ha [1, 6] | pest or weed control at 140 g/ha [1, 6] | pest or weed control at 35 g/ha [1, 7] | pest or weed control at 70 g/ha [1, 7] | pest or weed control at 140 g/ha [1, 7] | pest or weed control at 35 g/ha [1, 8] | pest or weed control at 70 g/ha [1, 8] | pest or weed control at 35 g/ha [2, 9] | pest or weed control at 70 g/ha [2, 9] | pest or weed control at 140 g/ha [2, 9] | pest or weed control at 35 g/ha [2, 10] | pest or weed control at 70 g/ha [2, 10] | pest or weed control at 140 g/ha [2, 10] | pest or weed control at 35 g/ha [2, 11] | pest or weed control at 70 g/ha [2, 11] | pest or weed control at 140 g/ha [2, 11] | pest or weed control at 35 g/ha [2, 12] | pest or weed control at 70 g/ha [2, 12] | pest or weed control at 140 g/ha [2, 12] | pest or weed control at 35 g/ha [2, 13] | pest or weed control at 70 g/ha [2, 13] | pest or weed control at 140 g/ha [2, 13] | pest or weed control at 35 g/ha [2, 14] | pest or weed control at 70 g/ha [2, 14] | pest or weed control at 140 g/ha [2, 14]
45 to 59%: pest or weed control at 140 g/ha [1, 8]
170 to 175 °C: melting point
95 to 100%: pest or weed control at 70 g/ha [1, 4] | pest or weed control at 140 g/ha [1, 4]

COc1c(N)nc(-c2ccc(Cl)c3occc23)nc1C(=O)O [Compound 2.22]
75 to 84%: pest or weed control at 35 g/ha [1, 8]
45 to 59%: pest or weed control at 140 g/ha [1, 3] | pest or weed control at 70 g/ha [1, 5]
0 to 29%: pest or weed control at 35 g/ha [1, 5] | pest or weed control at 35 g/ha [1, 7] | pest or weed control at 70 g/ha [1, 7] | pest or weed control at 140 g/ha [1, 7] | pest or weed control at 35 g/ha [2, 15] | pest or weed control at 70 g/ha [2, 15] | pest or weed control at 140 g/ha [2, 15] | pest or weed control at 35 g/ha [2, 16] | pest or weed control at 70 g/ha [2, 16] | pest or weed control at 140 g/ha [2, 16] | pest or weed control at 35 g/ha [2, 17] | pest or weed control at 70 g/ha [2, 17] | pest or weed control at 140 g/ha [2, 17] | pest or weed control at 35 g/ha [2, 18] | pest or weed control at 70 g/ha [2, 18] | pest or weed control at 140 g/ha [2, 18] | pest or weed control at 35 g/ha [2, 19] | pest or weed control at 70 g/ha [2, 19] | pest or weed control at 140 g/ha [2, 19] | pest or weed control at 35 g/ha [2, 20] | pest or weed control at 70 g/ha [2, 20] | pest or weed control at 140 g/ha [2, 20]
95 to 100%: pest or weed control at 35 g/ha [1, 4] | pest or weed control at 70 g/ha [1, 4] | pest or weed control at 140 g/ha [1, 4] | pest or weed control at 35 g/ha [1, 6] | pest or weed control at 70 g/ha [1, 6] | pest or weed control at 140 g/ha [1, 6] | pest or weed control at 140 g/ha [1, 8]
30 to 44%: pest or weed control at 35 g/ha [1, 3] | pest or weed control at 70 g/ha [1, 3]
85 to 94%: pest or weed control at 70 g/ha [1, 8]
204 to 206 °C: melting point
60 to 74%: pest or weed control at 140 g/ha [1, 5]
